Measurements reported in US20240116985A1, “STAPLED PEPTIDES AND METHODS THEREOF” (priority 2020, published 2024).
Read-outs that look alike come from different tables or passages of the source.

What was measured:
[1] = target: T1, beta-catenin/TCF4 engagement (Homo sapiens, UniProt P35222); experiment: Nano-BRET target engagement assay (B-cat-Halo & TCF4-Luc in HEK293 cells); type: cell-based; details: read-out: NanoBRET Abs IC50
T1 construct: expressed in transfected cells; host or cells: HEK293
T1 sequence (P35222 1-781): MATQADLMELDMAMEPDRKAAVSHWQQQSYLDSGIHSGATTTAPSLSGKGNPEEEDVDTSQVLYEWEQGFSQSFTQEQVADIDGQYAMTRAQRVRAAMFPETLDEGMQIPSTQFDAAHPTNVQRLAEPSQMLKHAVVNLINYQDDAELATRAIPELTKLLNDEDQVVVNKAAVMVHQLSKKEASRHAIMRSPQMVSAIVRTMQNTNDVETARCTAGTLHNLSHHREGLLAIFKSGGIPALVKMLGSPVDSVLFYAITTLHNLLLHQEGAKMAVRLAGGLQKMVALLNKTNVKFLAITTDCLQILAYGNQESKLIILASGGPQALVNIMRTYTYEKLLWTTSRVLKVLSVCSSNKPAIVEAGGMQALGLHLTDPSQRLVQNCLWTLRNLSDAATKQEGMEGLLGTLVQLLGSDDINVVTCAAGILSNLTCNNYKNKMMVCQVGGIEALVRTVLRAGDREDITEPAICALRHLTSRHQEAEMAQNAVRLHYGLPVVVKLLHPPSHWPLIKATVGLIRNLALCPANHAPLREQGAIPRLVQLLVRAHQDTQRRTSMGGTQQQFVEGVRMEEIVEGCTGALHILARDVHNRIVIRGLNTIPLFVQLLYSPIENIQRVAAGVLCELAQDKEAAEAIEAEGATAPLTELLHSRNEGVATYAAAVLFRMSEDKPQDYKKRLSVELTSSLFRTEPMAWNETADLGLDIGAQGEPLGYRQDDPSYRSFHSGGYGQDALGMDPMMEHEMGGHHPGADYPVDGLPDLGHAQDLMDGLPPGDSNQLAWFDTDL

[2] = target: T2, full-length beta-Catenin (Uniprot ID P35222) (Homo sapiens, UniProt P35222); experiment: Fluorescence polarization IC50 (beta-catenin / 5FAM-TCF4 10-53 competition); type: binding; details: fluorescence polarization
T2 construct: 10 nM full-length beta-Catenin (Uniprot ID P35222)
T2 sequence (P35222 1-781): T1 sequence (P35222 1-781)

Structure (SMILES)	IC50 ([1]; absolute IC50)	IC50 ([2]; read-out: beta-Catenin FP IC50)	IC50 ([2]; beta-catenin, read-out: FP EC50)	IC50 [1]
CC(=O)N1CCC[C@]12CC=CCCCC1(CCCC=CCCCOC(=O)N3CC[C@@](C(=O)N[C@@H](Cc4ccccc4Cl)C(=O)N[C@@H](Cc4csc5ccccc45)C(=O)N[C@@H](CCC(N)=O)C(N)=O)(C3)NC(=O)[C@H](CC(N)=O)NC(=O)[C@H](Cc3ccccc3)NC(=O)[C@H](C)NC(=O)[C@H](C)NC(=O)[C@H](CNCC(=O)O)NC(=O)[C@H](CC(=O)O)NC1=O)NC(=O)[C@H](CC(C)(C)C)NC(=O)[C@H](CC(=O)O)NC2=O (stereo partly drawn) [I-1572, Ac-PL3-Asp-Npg-B5-Asp-GA-Ala-Ala-Phe-Asn-PyrS2-2C1F-BztA-Gln-NH2]	> 20000 nM	20 nM		
CC(=O)N1CCC[C@]12CC=CCCCC1(CCCC=CCCCOC(=O)N3CC[C@@](C(=O)N[C@@H](Cc4ccsc4)C(=O)N[C@@H](Cc4csc5ccccc45)C(=O)N[C@H](C(N)=O)C(C)C)(C3)NC(=O)[C@H]([C@@H](C)O)NC(=O)[C@H](Cc3ccccc3)NC(=O)[C@H](C)NC(=O)[C@H](CCCCNC(C)C)NC(=O)[C@H](CN(CC(=O)O)CC(F)(F)F)NC(=O)[C@H](CC(=O)O)NC1=O)NC(=O)[C@H](CC(C)(C)C)NC(=O)[C@H](CC(=O)O)NC2=O (stereo partly drawn) [I-1764, Ac-PL3-Asp-Npg-B5-Asp-TfeGA-iPrLys-Ala-Phe-Thr-PyrS2-3Thi-BztA-Val-NH2]	> 20000 nM	23 nM		
CC(=O)N1CCC[C@]12CC=CCCCC1(CCCC=CCCCOC(=O)N3CC[C@@](C(=O)N[C@@H](Cc4ccccc4Cl)C(=O)N[C@@H](Cc4csc5ccccc45)C(=O)N[C@@H](CCC(N)=O)C(N)=O)(C3)NC(=O)[C@H](CC(N)=O)NC(=O)[C@H](Cc3ccccc3)NC(=O)[C@H](C)NC(=O)[C@H](C)NC(=O)[C@H](CC(=O)O)NC(=O)[C@H](CC(=O)O)NC1=O)NC(=O)[C@H](CC(C)(C)C)NC(=O)[C@H](CC(=O)S)NC2=O (stereo partly drawn) [I-1722, Ac-PL3-AspSH-Npg-B5-Asp-Asp-Ala-Ala-Phe-Asn-PyrS2-2C1F-BztA-Gln-NH2]	> 20000 nM	135 nM		
CC(=O)N1CCC[C@]12CC=CCCCC1(CCCC=CCCCOC(=O)N3CC[C@@](C(=O)N[C@@H](Cc4ccsc4)C(=O)N[C@@H](Cc4csc5ccccc45)C(=O)N[C@@H](CO)C(N)=O)(C3)NC(=O)[C@H](Cc3ccccc3)NC(=O)[C@H](Cc3ccccc3)NC(=O)[C@H](C)NC(=O)[C@H](C)NC(=O)[C@H](Cc3ccccc3C(=O)O)NC(=O)[C@H](CC(=O)O)NC1=O)NC(=O)[C@H](CC(C)(C)C)NC(=O)[C@H](CC(=O)O)NC2=O (single isomer, unassigned) [I-1664, Ac-PL3-Asp-Npg-B5-Asp-2COOHF-Ala-Ala-Phe-Phe-PyrS2-3Thi-BztA-Ser-NH2]	8000 nM	22 nM		
CC(=O)N1CCC[C@]12CC=CCCCC1(CCCC=CCCCOC(=O)N3CC[C@@](C(=O)N[C@@H](Cc4ccccc4C(F)(F)F)C(=O)N[C@@H](Cc4csc5ccccc45)C(=O)N[C@@H](CCC(N)=O)C(=O)N[C@@H](CC(C)C)C(=O)N[C@H](CC(C)C)C(N)=O)(C3)NC(=O)[C@H](CC(C)C)NC(=O)[C@H](Cc3ccccc3)NC(=O)[C@H](C)NC(=O)[C@H](C)NC(=O)[C@H](Cc3cccc(C(=O)O)c3)NC(=O)[C@H](CC(=O)O)NC1=O)NC(=O)[C@H](CC(C)(C)C)NC(=O)[C@H](CC(=O)O)NC2=O (stereo partly drawn) [I-2396, Ac-PL3-Asp-Npg-B5-Asp-3COOHF-Ala-Ala-Phe-Leu-PyrS2-2F3MeF-BztA-Gln-Leu-dLeu-NH2]	8300 nM	187 nM		
CCCC[C@@H]1NC(=O)[C@H](CC(=O)O)NC(=O)[C@]2(CC=CCCCC3(CCCC=CCCCOC(=O)N4CC[C@@](C(=O)N[C@@H](Cc5ccsc5)C(=O)N[C@@H](Cc5csc6ccccc56)C(=O)N[C@@H](CC(C)C)C(N)=O)(C4)NC(=O)[C@H](CC(C)C)NC(=O)[C@H](Cc4ccccc4)NC(=O)[C@H](C)NC(=O)[C@H](C)NC(=O)[C@H](CC(=O)O)NC(=O)[C@H](CC(=O)O)NC3=O)NC1=O)CCCN2C(C)=O (stereo partly drawn) [I-1412, Ac-PL3-Asp-nLeu-B5-Asp-Asp-Ala-Ala-Phe-Leu-PyrS2-3Thi-BztA-Leu-NH2]	> 20000 nM	79 nM	79 nM	
CC(=O)N1CCC[C@]12CC=CCCCC1(CCCC=CCCCOC(=O)N3CC[C@@](C(=O)N[C@@H](Cc4ccsc4)C(=O)N[C@H](C(=O)N[C@@H](C)C(N)=O)[C@H](C)c4ccc5ccccc5c4)(C3)NC(=O)[C@H](C(C)C)NC(=O)[C@H](Cc3ccccc3)NC(=O)[C@H](C)NC(=O)[C@H](CCC(N)=O)NC(=O)[C@H](Cc3cccc(C(=O)O)c3)NC(=O)[C@H](CC(=O)O)NC1=O)NC(=O)[C@H](CC(C)(C)C)NC(=O)[C@H](CC(=O)O)NC2=O (stereo partly drawn) [I-2312, Ac-PL3-Asp-Npg-B5-Asp-3COOHF-Gln-Ala-Phe-Val-PyrS2-3Thi-RbMe2NapA-Ala-NH2]	5200 nM	5 nM		
CC(=O)N1CCC[C@]12CC=CCCCC1(CCCC=CCCCOC(=O)N3CC[C@@](C(=O)N[C@@H](Cc4ccccc4C(F)(F)F)C(=O)N[C@@H](Cc4csc5ccccc45)C(=O)N[C@@H](CCC(N)=O)C(=O)N[C@@H](CC(C)C)C(=O)N[C@@H](Cc4ccc(O)cc4)C(N)=O)(C3)NC(=O)[C@H](CC(C)C)NC(=O)[C@H](Cc3ccccc3)NC(=O)[C@H](C)NC(=O)[C@H](C)NC(=O)[C@H](Cc3cccc(C(=O)O)c3)NC(=O)[C@H](CC(=O)O)NC1=O)NC(=O)[C@H](CC(C)(C)C)NC(=O)[C@H](CC(=O)O)NC2=O (stereo partly drawn) [I-2392, Ac-PL3-Asp-Npg-B5-Asp-3COOHF-Ala-Ala-Phe-Leu-PyrS2-2F3MeF-BztA-Gln-Leu-Tyr-NH2]	8600 nM	461 nM		
CC(=O)N1CCC[C@]12CC=CCCCC1(CCCC=CCCCOC(=O)N3CC[C@@](C(=O)N[C@@H](Cc4ccccc4Cl)C(=O)N[C@@H](Cc4csc5ccccc45)C(=O)N[C@@H](CO)C(=O)N[C@H](CO)[C@@H](C)O)(C3)NC(=O)[C@H](CC(C)C)NC(=O)[C@H](Cc3ccccc3)NC(=O)[C@H](C)NC(=O)[C@H](C)NC(=O)[C@H](Cc3cccc(C(=O)O)c3)NC(=O)[C@H](CC(=O)O)NC1=O)NC(=O)[C@H](CC(C)(C)C)NC(=O)[C@H](CC(=O)O)NC2=O (stereo partly drawn) [I-1905, Ac-PL3-Asp-Npg-B5-Asp-3COOHF-Ala-Ala-Phe-Leu-PyrS2-2C1F-BztA-Ser-Thro1]		20 nM		9700 nM
CNCCCCN(C)C(=O)CC[C@@H]1NC(=O)[C@H](Cc2cccc(C(=O)O)c2)NC(=O)[C@H](CC(=O)O)NC(=O)C2(CCCC=CCCCOC(=O)N3CC[C@@](C(=O)N[C@@H](Cc4ccsc4)C(=O)N[C@@H](Cc4csc5ccccc45)C(=O)N[C@@H](C)C(N)=O)(C3)NC(=O)[C@H](C(C)C)NC(=O)[C@H](Cc3ccccc3)NC(=O)[C@H](C)NC1=O)CCCC=CC[C@]1(CCCN1C(C)=O)C(=O)N[C@@H](CC(=O)O)C(=O)N[C@@H](CC(C)(C)C)C(=O)N2 (stereo partly drawn) [I-2301, Ac-PL3-Asp-Npg-B5-Asp-3COOHF-[Me2diaminobutane]GlnR-Ala-Phe-Val-PyrS2-3Thi-BztA-Ala-NH2]	> 20000 nM	5 nM		
CC(=O)N1CCC[C@]12CC=CCCCC1(CCCC=CCCCOC(=O)N3CC[C@@](C(=O)N[C@@H](Cc4ccsc4)C(=O)N[C@@H](Cc4csc5ccccc45)C(=O)N[C@@H](CCC(N)=O)C(N)=O)(C3)NC(=O)[C@H](CC(N)=O)NC(=O)[C@H](Cc3ccccc3)NC(=O)[C@H](C)NC(=O)[C@H](C)NC(=O)[C@H](CC(N)=O)NC(=O)[C@H](CC(N)=O)NC1=O)NC(=O)[C@H](C)NC(=O)[C@H](CC(=O)O)NC2=O (stereo partly drawn) [I-1556, Ac-PL3-Asp-Ala-B5-Asn-Asn-Ala-Ala-Phe-Asn-PyrS2-3Thi-BztA-Gln-NH2]	> 20000 nM	385 nM		
CC(=O)N1CCC[C@]12CC=CCCCC1(CCCC=CCCCOC(=O)N3CC[C@@](C(=O)N[C@@H](Cc4ccsc4)C(=O)N[C@@H](Cc4csc5ccccc45)C(=O)N[C@@H](CCC(N)=O)C(N)=O)(C3)NC(=O)[C@H](Cn3cc(CN(C)C)nn3)NC(=O)[C@H](Cc3ccccc3)NC(=O)[C@H](C)NC(=O)[C@H](C)NC(=O)[C@H](CN(CC(=O)O)CC(F)(F)F)NC(=O)[C@H](CC(=O)O)NC1=O)NC(=O)[C@H](CC(C)(C)C)NC(=O)[C@H](CC(=O)O)NC2=O (stereo partly drawn) [I-1861, Ac-PL3-Asp-Npg-B5-Asp-TfeGA-Ala-Ala-Phe-[CH2NMe2]TriAzDap-PyrS2-3Thi-BztA-Gln-NH2]		14 nM		37300 nM
CC(=O)N1CCC[C@]12CC=CCCCC1(CCCC=CCCCOC(=O)N3CC[C@@](C(=O)N[C@@H](Cc4ccsc4)C(=O)N[C@@H](Cc4csc5ccccc45)C(=O)N[C@H](CO)[C@@H](C)O)(C3)NC(=O)[C@H](CC(C)C)NC(=O)[C@H](Cc3ccccc3)NC(=O)[C@H](C)NC(=O)[C@H](C)NC(=O)[C@H](Cc3ccccc3C(=O)O)NC(=O)[C@H](CC(=O)O)NC1=O)NC(=O)[C@H](CC(C)(C)C)NC(=O)[C@H](CC(=O)O)NC2=O (single isomer, unassigned) [I-1670, Ac-PL3-Asp-Npg-B5-Asp-2COOHF-Ala-Ala-Phe-Leu-PyrS2-3Thi-BztA-Thro1]	7900 nM	11 nM		
